For orientation: MTD means the highest dose tested that stayed within the study's limit of toxicity. Read a low MTD as poorer tolerability. Broadly, the mortality is the percentage killed. High values mean fewer survivors, low ones more survivors. In general, IC50 refers to the concentration that inhibits the measured activity by half.

Read-outs that look alike come from different tables or passages of the source.

Series [1] can be described thus: Toxicity (lethality, maximal tolerated dose) in tumor-bearing nude mice, i.p. Particulars: mouse, in vivo, ip. The procedure: (§1) 6 to 8 week old nude mice of NMRI genetic background were used for all experiments. Tumors were implanted subcutaneously in both flanks of athymic nude mice. Treatment was started as soon as the tumors reached a median diameter of 6 mm, depending on the doubling time between day 12-42. Mice were randomly assigned to treatment groups and control group (5-6 mice per group bearing 6-12 evaluable tumors).
Drug therapy was intraperitoneal on day 1,4,7 and 10.
Toxicity was assessed by lethality within 10 days after last therapy and body weight loss. The body weight of the nude mice was measured weekly, for rapidly growing tumor lines, measurements were done twice weekly.

A further series concerns OVXF 1023. As to the kind of experiment: Human tumor xenograft in nude mice, i.p., ovary carcinoma OVXF 1023. It is filed as in vivo. Particulars: i.p. 150 mg/kg/day (MTD), days 1,4,7,10. How it is done: as §1
(§2) Tumor size was measured by two-dimensional measurement with calipers. The antitumor effect was evaluated following maximal tumor regression, in non-regressing tumors after 3-4 weeks. Relative tumor volume (RTV) values were calculated for each single tumor by dividing the tumor volume day×by the tumor volume day 0 at the time of randomization. Median RTV values were used for further evaluation.
(§3) Drug therapy was intraperitoneal on day 1,4,7 and 10. The dose of 150 mg/kg/day was considered to be the maximal tolerated dose resulting in a lethality of 14% in tumor-bearing nude mice.
(§4) Tumor growth inhibition was calculated according to relative tumor volume of control minus test divided by the control group. Furthermore the specific growth delay (SGD) was calculated with regard to the tumor doubling time (DT) by doubling time test group minus control divided by the doubling time of the control group.

Series [2] concerns HL-60. Briefly: MTT dye reduction cytotoxicity assay, HL-60. It is filed as cell-based. Particulars: Homo sapiens. Background: Formazan colour is commonly taken as a measure of viable cells.
The next series relates to U937. Briefly: MTT dye reduction cytotoxicity assay, U937. It is filed as cell-based. Particulars: Homo sapiens, U-937.
The test system of another series is MEXF 276. Briefly: Human tumor xenograft in nude mice, i.p., melanoma MEXF 276. The format is in vivo. Particulars: MEXF 276, amelanotic; i.p. 150 mg/kg/day (MTD), days 1,4,7,10. The procedure: as §1, §2, §3, §4
A general note: A xenograft is tissue or cells of one species grown in another, often human tumour cells in immunodeficient mice.

The next series has as its system K562. As to the kind of experiment: MTT dye reduction cytotoxicity assay, K562. The format is cell-based. The following applies: Homo sapiens.
Series [3] deals with L1210 leukemia. As to the kind of experiment: Intravenous treatment of L1210 leukemia in BDF1 mice. It is filed as in vivo, murine (female BDF1 mice). The following applies: i.v.; for T/C, increase of lifespan: including 60d survivors; for Survivors 60 Days: survivors/group.
For series [4], the system named is CCRF-CEM. Briefly: Human tumor xenograft in nude mice, i.p., leukemia CCRF-CEM. The format is in vivo. Particulars: acute lymphatic leukemia, i.p. 150 mg/kg/day (MTD), days 1,4,7,10. How it is done: as §1, §2, §3, §4
Another series deals with CCRF-CEM (dcK)^-. Briefly: MTT dye reduction cytotoxicity assay, CCRF-CEM deoxycytidine kinase deficient cell line. The format is cell-based. Particulars: Homo sapiens.
The subject of another series is LXFS 605. As to the kind of experiment: Human tumor xenograft in nude mice, i.p., lung carcinoma LXFS 605. The format is in vivo. The following applies: LXFS 605, small cell; i.p. 150 mg/kg/day (MTD), days 1,4,7,10. How it is done: as §1, §2, §3, §4
The subject of series [5] is HL-60. As to the kind of experiment: Human tumor xenograft in nude mice, i.p., leukemia HL-60. The following applies: HL-60, acute promyelocytic leukemia; i.p. 150 mg/kg/day (MTD), days 1,4,7,10. It is filed as in vivo. How it is done: as §1, §2, §3, §4
In another series the test system is LXFL 529. As to the kind of experiment: Human tumor xenograft in nude mice, i.p., lung carcinoma LXFL 529. The format is in vivo. The following applies: LXFL 529, large cell; i.p. 150 mg/kg/day (MTD), days 1,4,7,10. How it is done: as §1, §2, §3, §4
The next series relates to MAXF 401. Briefly: Human tumor xenograft in nude mice, i.p., mammary carcinoma MAXF 401. The format is in vivo. The following applies: MAXF 401, adenocarcinoma; i.p. 150 mg/kg/day (MTD), days 1,4,7,10. How it is done: as §1, §2, §3, §4
In series [6] the test system is L1210 leukemia. As to the kind of experiment: Oral treatment of L1210 leukemia in BDF1 mice, therapy on days 1-5. The format is in vivo, murine (female BDF1 mice). Particulars: for T/C, increase of lifespan: including 60 day survivors; for Survivors 60 Days: survivors/group. How it is done: The anti-tumor activity of the liposomal drug preparations was evaluated with the murine L1210 leukemia model in female BDF1 mice (Rubas et al., Int. J. Cancer, 37, 149-154 (1986)). The L1210 cells (1×10^5) from donor ascites were injected i.v.
Control groups of 5-6 mice received ara-C dissolved in phosphate buffer (PB). The animals were observed daily until death or 60 days. Increase in lifespan of the treated animals (T) was compared to that of the untreated controls (C), expressed as T/C in percentages. Animals surviving 60 days were included in the calculation and considered as being cured.

For series [7], the system named is CCRF-CEM. As to the kind of experiment: MTT dye reduction cytotoxicity assay, CCRF-CEM. The format is cell-based. Particulars: Homo sapiens.
The next series has as its system PC3M. Briefly: Human tumor xenograft in nude mice, i.p., prostate carcinoma PC3M. The format is in vivo. Particulars: adenocarcinoma, i.p. 150 mg/kg/day (MTD), days 1,4,7,10. How it is done: as §1, §2, §3, §4
A further series relates to cytosine deaminase. The following applies: in the body, in words; cited from earlier work.
Where [8] appears, read: total dose 200 μmol/kg (49 mg/kg).

`CCCCCCCCCCCCCCCCCCNc1ccn([C@@H]2O[C@H](CO)[C@@H](O)[C@@H]2O)c(=O)n1` [NOAC, 4-(1-octadecylamino)-1-β-D-arabinofuranosyl-2(1H)-pyrimidinone] yielded an MTD in series [1] (days 1,4,7 and 10, tumor-bearing nude mice) of 150 mg/kg/day. In series [1] (150 mg/kg/day i.p., tumor-bearing nude mice), this molecule yielded a mortality of 14%. The Growth inhibition with OVXF 1023 is 45%; in the series on MEXF 276, 39%; in the series on CCRF-CEM [4], 96%; in the series with LXFS 605, 73%; in the series on HL-60 [5] it was 97%; with LXFL 529 it was 79%. The Growth inhibition with MAXF 401 was 85%; with PC3M, 83%. The IC50 was below 50 µM with HL-60 [2] (HL-60, MTT assay, read-out: IC50); below 100 µM in the series on U937 (U937, MTT assay, read-out: IC50); below 200 µM in the series with K562 (K562, MTT assay, read-out: IC50); below 140 µM in the series on CCRF-CEM (dcK)^-; 50 µM with CCRF-CEM [7] (MTT assay, read-out: IC50). Further, the “effect compared with ara-C and N^4-hexadecyl-ara-C” value with L1210 leukemia [3] (results of Table 2, in words) was “superiority of NOAC over the prior art compounds, ara-C and N^4 -hexadecyl-ara-C”. Besides, the “Survival Time, Mean ± SD” value came out at 52.1 ± 19.2 days in the series on L1210 leukemia [3] (total dose 50 μmol/kg), 60 days with L1210 leukemia [3] (total dose 100 μmol/kg), 54 ± 15 days in the series with L1210 leukemia [6] (total dose 1 mmol/kg) and 55 ± 12 days in the series with L1210 leukemia [6] (total dose 2 mmol/kg). Besides, the “T/C, increase of lifespan” value in the series with L1210 leukemia [3] (total dose 50 μmol/kg) was determined as 744%; in the series on L1210 leukemia [3] (total dose 100 μmol/kg), 857%; in the series with L1210 leukemia [6] (total dose 1 mmol/kg) it was 673%; with L1210 leukemia [6] (total dose 2 mmol/kg), 689%. Moreover, the “Survivors 60 Days” value in the series on L1210 leukemia [3] (total dose 50 μmol/kg) is 5/6; in the series on L1210 leukemia [3] (total dose 100 μmol/kg) it was 6/6; in the series with L1210 leukemia [6] (total dose 1 mmol/kg), 5/6; with L1210 leukemia [6] (total dose 2 mmol/kg) it was 5/6. Besides, the “Survival Time, Range” value in the series on L1210 leukemia [3] (total dose 100 μmol/kg) is above 60 days.

For `CCCCCCCCCCCCCCCCNc1ccn([C@@H]2O[C@H](CO)[C@@H](O)[C@@H]2O)c(=O)n1` [N^4 -Hexadecyl-ara-C, 4-(1-hexadecylamino)-1-β-D-arabinofuranosyl-2(1H)-pyrimidinone], in the series with L1210 leukemia [3] (total dose 50 μmol/kg), the “Survival Time, Mean ± SD” value turned out to be 10.6 days; the “Survival Time, Range” value lay in the range of 10 to 11 days; the “Survivors 60 Days” value is reported as 0/5. In addition, in the series on L1210 leukemia [3] (total dose 100 μmol/kg), the “Survival Time, Mean ± SD” value is 12.0 days; the “Survival Time, Range” value lay in the range of 11 to 16 days; the “Survivors 60 Days” value was 0/5.

As for `Nc1ccn([C@@H]2O[C@H](CO)[C@@H](O)[C@@H]2O)c(=O)n1` [ara-C, 4-amino-1-β-D-arabinofuranosyl-2(1H)-pyrimidinone, reference compound], the concentration for half-maximal inhibition (IC50) was above 200 µM with HL-60 [2] (HL-60), above 200 µM with U937, above 400 µM with K562 (K562) and below 1 µM in the series on CCRF-CEM [7]. Besides, the “Survival Time, Mean ± SD” value in the series on L1210 leukemia [3] (setting [8]) came out at 19.8 ± 19.7 days; with L1210 leukemia [6] (total dose 2 mmol/kg), 13 ± 17 days. Also, the “T/C, increase of lifespan” value in the series on L1210 leukemia [3] (setting [8]) stood at 282%; in the series with L1210 leukemia [6] (total dose 2 mmol/kg) it was 221%. Also, the “Survivors 60 Days” value in the series with L1210 leukemia [3] (setting [8]) is on record as 1/6; in the series with L1210 leukemia [6] (total dose 2 mmol/kg) it was 0/6. Also, in the series with L1210 leukemia [6] (total dose 2 mmol/kg), the “Survival Time, Range” value is 10 to 52 days. Moreover, the “deamination by cytosine deaminase” value in the series on cytosine deaminase is “rapidly undergoes deamination”.

Values taken from patent US5641758A, “Cytarabine derivatives, the preparation and use thereof” (priority 1994, dated 1997).
